Reference: US20120115845A1, “THERAPEUTIC AGENTS” (priority 2007, published 2012)

How the values were obtained:
human GHS receptor [1] = target: T1, human GHS receptor (Homo sapiens, UniProt Q92847); test: Ghrelin IP1 agonist assay (IP1 HTRF); assay type: cell-based; set-up: expressed in transfected cells; host or cells: HEK293s; details: for Emax: 2 h, agonist effect as % maximal effect of GHRP-6 (5 μM), read-out: h IP1 ag %; for EC50: HEK293s cells stably expressing human GHS receptor, 2 hours at 37° C., read-out: h IP1 ag EC50
Summary of the method: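 Cells: HEK293s stably expressing human GHS receptor, in stimulation buffer containing 0.02% fatty acid free BSA.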

human GHS receptor [2] = target: T1, human GHS receptor; test: h bind IC50 (binding assay, Table 1); details: human receptor; Table 1

T1 sequence (Q92847 whole entry): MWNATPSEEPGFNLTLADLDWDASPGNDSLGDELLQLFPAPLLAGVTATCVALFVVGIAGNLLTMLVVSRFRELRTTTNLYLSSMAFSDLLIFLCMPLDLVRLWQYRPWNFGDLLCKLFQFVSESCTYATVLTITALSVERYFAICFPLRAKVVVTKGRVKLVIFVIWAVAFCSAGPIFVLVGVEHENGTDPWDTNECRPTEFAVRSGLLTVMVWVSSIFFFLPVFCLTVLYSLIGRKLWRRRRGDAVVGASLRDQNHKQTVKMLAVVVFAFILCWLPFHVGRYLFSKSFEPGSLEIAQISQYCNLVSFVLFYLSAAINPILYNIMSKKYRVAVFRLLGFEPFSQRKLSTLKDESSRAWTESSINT

Cc1cc(C)n(-c2ccc(Cl)c(C(=O)NC(=O)Nc3nc4ccc(S(=O)(=O)CCCN5CCN(C)CC5)cc4s3)c2)n1 [Example 237, 2-chloro-5-(3,5-dimethyl-1H-pyrazol-1-yl)-N-(6-(3-(4-methylpiperazin-1-yl)propylsulfonyl)benzo[d]thiazol-2-ylcarbamoyl) benzamide]
Emax (human GHS receptor [1]): 0%
EC50 (human GHS receptor [1]): ≥ 20 µM
IC50 (human GHS receptor [2]): 0.0007 µM

COCCNC1CC(S(=O)(=O)c2ccc3nc(NC(=O)NC(=O)c4ccccc4Cl)sc3c2)C1 (stereo not drawn) [Example 222, 2-Chloro-N-[[6-[3-(2-methoxyethylamino)cyclobutyl]sulfonylbenzothiazol-2-yl]carbamoyl]benzamide]
Emax (human GHS receptor [1]): 58.2%
EC50 (human GHS receptor [1]): 0.043 µM
IC50 (human GHS receptor [2]): 0.0186 µM

CCN(CC)CCCCS(=O)(=O)c1ccc2nc(NC(=O)NC(=O)c3ccccc3Cl)sc2c1 [Example 211, 2-Chloro-N-[[6-(4-diethylaminobutylsulfonyl)benzothiazol-2-yl]carbamoyl]benzamide]
Emax (human GHS receptor [1]): 27.7%
EC50 (human GHS receptor [1]): 0.00958 µM
IC50 (human GHS receptor [2]): 0.0536 µM

CCN1CC(S(=O)(=O)c2ccc3nc(NC(=O)NC(=O)c4ccccc4Cl)sc3c2)C1 [Example 185, 2-Chloro-N-[[6-(1-ethylazetidin-3-yl)sulfonylbenzothiazol-2-yl]carbamoyl]benzamide]
Emax (human GHS receptor [1]): 39.7%
EC50 (human GHS receptor [1]): 0.0692 µM
IC50 (human GHS receptor [2]): 0.0669 µM

CS(=O)(=O)c1ccc2nc(NC(=O)NC(=O)c3cc(C4CCCC4)ccc3Cl)sc2c1 [Example 52, 2-Chloro-5-cyclopentyl-N-(6-(methylsulfonyl)benzothiazol-2-ylcarbamoyl)benzamide]
Emax (human GHS receptor [1]): 0%
EC50 (human GHS receptor [1]): ≥ 25 µM
IC50 (human GHS receptor [2]): 0.0037 µM

CC(C)N1CCCC(S(=O)(=O)c2ccc3nc(NC(=O)NC(=O)c4ccccc4Cl)sc3c2)C1 (stereo not drawn) [Example 140, 2-Chloro-N-[[6-[(1-propan-2-yl-3-piperidyl)sulfonyl]benzothiazol-2-yl]carbamoyl]benzamide]
Emax (human GHS receptor [1]): 42.5%
EC50 (human GHS receptor [1]): 0.062 µM
IC50 (human GHS receptor [2]): 0.289 µM

CN1CCN(CCCS(=O)(=O)c2ccc3nc(NC(=O)NC(=O)c4cc(OS(C)(=O)=O)ccc4Cl)sc3c2)CC1 [Example 92, 4-Chloro-3-(6-(3-(4-methylpiperazin-1-yl)propylsulfonyl)benzothiazol-2-ylcarbamoylcarbamoyl)phenyl methanesulfonate]
Emax (human GHS receptor [1]): 4.99%
EC50 (human GHS receptor [1]): > 4.87 µM
IC50 (human GHS receptor [2]): 0.0101 µM

O=C(NC(=O)c1ccccc1Cl)Nc1nc2ccc(S(=O)(=O)CCN3CC[C@H](F)C3)cc2s1 [Example 16, 2-Chloro-N-[[6-[2-[(3S)-3-fluoropyrrolidin-1-yl]ethylsulfonyl]benzothiazol-2-yl]carbamoyl]benzamide]
Emax (human GHS receptor [1]): 34.1%
EC50 (human GHS receptor [1]): 0.0644 µM
IC50 (human GHS receptor [2]): 0.1 µM

CS(=O)(=O)c1ccc2nc(NC(=O)NC(=O)c3cc(-c4cncs4)ccc3Cl)sc2c1 [Example 68, 2-chloro-N-(6-(methylsulfonyl)benzothiazol-2-ylcarbamoyl)-5-(thiazol-5-yl)benzamide]
Emax (human GHS receptor [1]): 0%
EC50 (human GHS receptor [1]): > 25 µM
IC50 (human GHS receptor [2]): 0.0441 µM

CN1CCN(CCCS(=O)(=O)c2ccc3nc(NC(=O)NC(=O)c4cc(-n5cncn5)ccc4Cl)sc3c2)CC1 [Example 95, 2-Chloro-N-(6-(3-(4-methylpiperazin-1-yl)propylsulfonyl)benzothiazol-2-ylcarbamoyl)-5-(1H-1,2,4-triazol-1-yl)benzamide]
Emax (human GHS receptor [1]): 9.48%
EC50 (human GHS receptor [1]): 1.16 µM
IC50 (human GHS receptor [2]): 0.0107 µM

CCN(CC)CCCS(=O)(=O)c1ccc2nc(NC(=O)NC(=O)c3cc(-n4cccc4)ccc3Cl)sc2c1 [Example 71, 2-Chloro-N-[[6-(3-diethylaminopropylsulfonyl)benzothiazol-2-yl]carbamoyl]-5-pyrrol-1-yl-benzamide]
Emax (human GHS receptor [1]): 0.0469%
EC50 (human GHS receptor [1]): ≥ 25 µM
IC50 (human GHS receptor [2]): 0.0004 µM

COc1ccc(-c2ccccc2C(=O)NC(=O)Nc2nc3ccc(S(C)(=O)=O)cc3s2)cc1 [Example 124, 2-(4-Methoxyphenyl)-N-[(6-methylsulfonylbenzothiazol-2-yl)carbamoyl]benzamide]
Emax (human GHS receptor [1]): 54.5%
EC50 (human GHS receptor [1]): 0.524 µM
IC50 (human GHS receptor [2]): 0.135 µM

CS(=O)(=O)c1ccc2nc(NC(=O)NC(=O)c3cc(C4CC4)ccc3Cl)sc2c1 [Example 49, 2-Chloro-5-cyclopropyl-N-(6-(methylsulfonyl)benzothiazol-2-ylcarbamoyl)benzamide]
Emax (human GHS receptor [1]): 0%
EC50 (human GHS receptor [1]): ≥ 25 µM
IC50 (human GHS receptor [2]): 0.0129 µM

CCN(CC)CCCS(=O)(=O)c1ccc2nc(NC(=O)NC(=O)c3cc(-n4cccn4)ccc3Cl)sc2c1 [Example 98, 2-Chloro-N-(6-(3-(diethylamino)propylsulfonyl)benzothiazol-2-ylcarbamoyl)-5-(1H-pyrazol-1-yl)benzamide]
Emax (human GHS receptor [1]): 9.19%
EC50 (human GHS receptor [1]): 0.0015 µM
IC50 (human GHS receptor [2]): 0.0087 µM

Cc1cc(CS(=O)(=O)c2ccc3nc(NC(=O)NC(=O)c4ccccc4Cl)sc3c2)no1 [Example 188, 2-Chloro-N-[[6-[(5-methyl-1,2-oxazol-3-yl)methylsulfonyl]benzothiazol-2-yl]carbamoyl]benzamide]
Emax (human GHS receptor [1]): 16.4%
EC50 (human GHS receptor [1]): 0.0521 µM
IC50 (human GHS receptor [2]): 0.0538 µM

CS(=O)(=O)c1ccc2nc(NC(=O)NC(=O)c3c(Cl)cccc3Cl)sc2c1 [Example 101, 2,6-Dichloro-N-[(6-methylsulfonylbenzothiazol-2-yl)carbamoyl]benzamide]
Emax (human GHS receptor [1]): 7.89%
EC50 (human GHS receptor [1]): 0.206 µM
IC50 (human GHS receptor [2]): 0.284 µM

CS(=O)(=O)c1ccc2nc(NC(=O)NC(=O)c3cc(Cl)ccc3Cl)sc2c1 [Example 64, 2,5-Dichloro-N-[(6-methylsulfonylbenzothiazol-2-yl)carbamoyl]benzamide]
Emax (human GHS receptor [1]): 8.74%
EC50 (human GHS receptor [1]): 0.019 µM
IC50 (human GHS receptor [2]): 0.139 µM

CCSc1ccccc1C(=O)NC(=O)Nc1nc2ccc(S(C)(=O)=O)cc2s1 [Example 130, 2-Ethylsulfanyl-N-[(6-methylsulfonylbenzothiazol-2-yl)carbamoyl]benzamide]
Emax (human GHS receptor [1]): 31.1%
EC50 (human GHS receptor [1]): 0.668 µM
IC50 (human GHS receptor [2]): 0.288 µM

O=C(NC(=O)c1cc(-n2cccc2)ccc1Cl)Nc1nc2ccc(S(=O)(=O)CCCNCC3CC3)cc2s1 [Example 72, 2-Chloro-N-[[6-[3-(cyclopropylmethylamino)propylsulfonyl]benzothiazol-2-yl]carbamoyl]-5-pyrrol-1-yl-benzamide]
Emax (human GHS receptor [1]): 6.6%
EC50 (human GHS receptor [1]): 6.07 µM
IC50 (human GHS receptor [2]): 0.0003 µM

CC(C)CNCCS(=O)(=O)c1ccc2nc(NC(=O)NC(=O)c3ccccc3Cl)sc2c1 [Example 28, 2-Chloro-N-[[6-[2-(2-methylpropylamino)ethylsulfonyl]benzothiazol-2-yl]carbamoyl]benzamide]
Emax (human GHS receptor [1]): 44.6%
EC50 (human GHS receptor [1]): 0.0337 µM
IC50 (human GHS receptor [2]): 0.043 µM

O=C(NC(=O)c1cc(-n2cccc2)ccc1Cl)Nc1nc2ccc(S(=O)(=O)CCCN3CCNCC3)cc2s1 [Example 73, 2-Chloro-N-[[6-(3-piperazin-1-ylpropylsulfonyl)benzothiazol-2-yl]carbamoyl]-5-pyrrol-1-yl-benzamide]
Emax (human GHS receptor [1]): 2.25%
EC50 (human GHS receptor [1]): ≥ 25 µM
IC50 (human GHS receptor [2]): 0.0013 µM

COc1cc(Cl)c(C(=O)NC(=O)Nc2nc3ccc(S(=O)(=O)C4CCN(C)CC4)cc3s2)cc1-n1cccn1 [Example 264, 2-chloro-4-methoxy-N-(6-(1-methylpiperidin-4-ylsulfonyl)benzo [d]thiazol-2-ylcarbamoyl) 5-(1H-pyrazol-1-yl)benzamide]
Emax (human GHS receptor [1]): 0%
EC50 (human GHS receptor [1]): ≥ 20 µM
IC50 (human GHS receptor [2]): 0.00443 µM
